In patent US20100279942A1, “METHODS FOR TREATING MOTOR NEURON DISEASE” (priority 2004, published 2010):
Values joined by “and” are separate entries in the source; they are usually repeats but may differ in a detail not shown here. Equal values may be shown once. “Also recorded” adds a separate entry of the source. Ends that are not written are not given here.

Tests used:
[1] = test system: F11 cells transformed with SOD1 mutant (A4T-SOD1, G85R-SOD1, G93R-SOD1) genes; assay: Neuronal cell death test, Trypan blue exclusion assay, F11 cells transformed with SOD1 mutant genes; type: cell-based, rat/mouse hybrid cell
Procedure: F11 cell, the hybrid cell of rat embryonic day 13 (E13) primary cultured neuronal cell with mouse neuroblastoma NTG18 cell, was cultured in Ham's F-12 medium (Life Technologies, Gaithersburg, Md.) containing 18% FBS (Hyclone, Logan, Utah) and antibiotics as previously reported (Platika D, et al., 1985, Proc Natl Acad Sci USA 82: 3499-3503; Yamatsuji T, et al., 1996, Science 272: 1349-1352; Huang P, et al., 2000, Mol Hum Reprod 6: 1069-1078; and Niikura T, et al., 2001, J Neuroscience, 21: 1902-1910).
The F11 cells (7×10^4 cells/well, 6-well plate, 12- to 16-hour culture in Ham's F-12 (18% PBS) medium) were transformed with wild-type or SOD1 mutant (A4T, G85R, and G93R) genes by lipofection (0.5 μg of each SOD1 gene; 1 μl of LipofectAMINE; 2 μl of PLUS Reagent) under serum-free conditions for 3 hours and cultured for 2 hours in Ham's F-12 (18% PBS) medium. The medium was replaced by Ham's F-12 (10% PBS) in the presence or absence of ADNF. After 72 hours of the transformation, cell mortality was measured by Trypan blue exclusion assay as previously reported (Hashimoto Y, et al., 2001, J Neurosci 21: 9235-9245; and Hashimoto Y, et al, 2001, Proc Natl Acad Sci USA 98: 6336-6341). […]
Intracellular signaling by ADNF was examined. F11 cells were transformed with pEF-BOS or SOD1 mutant (A4T-SOD1, G85R-SOD1, or G93R-SOD1) cDNA and reacted with 10 nM wortmannin (PI3 kinase inhibitor), 100 μM genistein (tyrosine kinase inhibitor), 50 μM PD98059 (MEK inhibitor), 20 μM SB203580 (p38 MAPK inhibitor), 1 μM AG490 (JAK kinase inhibitor), 5 μM KN93 (calcium/calmodulin-dependent kinase inhibitor), or 10 μM HA1004 (protein kinase A inhibitor) in the presence or absence of 100 nM ADNF. After 72 hours of the transformation, cell mortality was measured by Trypan blue exclusion assay.
The effect of KN93 on the neuroprotective action of ADNF was examined. […] After 72 hours of the transformation, cell mortality was measured by Trypan blue exclusion assay. […]

[2] = test system: SOD1 proteins; assay: Immunoblot analysis of SOD1 protein expression in transformed cells; type: cell-based, mouse and rat/mouse hybrid; settings: ADNF treatment; F11 and NSC34 cells
Procedure: Immunoblot analysis was conducted according to the previous report (Hashimoto Y, et al., supra, p. 6336-6341). To examine the protein expression of wild-type or SOD1 mutant genes, lysates from the cells transfected with each SOD1 gene were subjected to SDS-PAGE (20 μg/lane). After electrical blotting to a PVDF membrane, the membrane was blocked by a typical method and reacted with an anti-SOD1 antibody and then with a 1:5000-diluted horseradish peroxidase-conjugated anti-mouse IgG antibody (Bio-Rad Lab. Hercules, Calif., USA). The antibody-reactive bands were detected by ECL (Amersham Pharmacia Biotech, Uppsala, Sweden).

[3] = test system: G93A-SOD1 Tg mice; assay: Motor performance (rotarod), disease onset and survival in G93A-SOD1 Tg mice; type: in vivo, mouse
Source text: Transgenic (Tg) mice (hereinafter, referred to as “G93A-SOD1 Tg mice”) expressing human FALS-associated SOD1 mutant gene with a mutation (G93A) from Gly to Ala at 93 position are the best-established mouse model of ALS (Gurney M E, et al., 1994, Science 264: 1772-1775; and Gurney M E, et al., 1997, J Neurol Sci 152 Suppl 1: S67-73). The G93A-SOD1 Tg mice manifest symptoms quite similar to human ALS after normal birth and rapidly result in death in all cases. The G93A-SOD1 Tg mice, which have the onset of the regression of motor neurons similar clinically and pathologically to that in human ALS, have been known so far to be the most excellent model of ALS throughout the world and employed for identifying effective candidate agents for ALS patients.
The model mice were used to confirm the in vivo effect of ADNF on neurotoxicity induced by G93A-SOD1.
The G93A-SOD 1 Tg mice were purchased from Jackson Laboratories (Bar Harbor, Me.). The G93A-SOD1 Tg mice were kept as hemizygote mice by the mating thereof with C57BL/6J mice (CLEA Japan, Inc). The mice were raised in a SPF room (specific pathogen-free animal facility; 23±1° C., 55±5% humidity) in the 12-hour light/[…] (7:00 AM-7:00 PM). The mice were freely fed with gamma ray-irradiated Picolab Rodent Diet 20 (PMI Feeds Inc. St. Louis, Mo.) and sodium hyposulfite (5 ppm)-containing aseptic deionized distilled water.
The G93A-SOD1 Tg mice at 10 weeks of age were put under anesthesia by the intraperitoneal injection of 10% sodium pentobarbital (60 mg/kg). A hole was made on the cranial bone with a drill on the operating table of a stereotactic instrument to aseptically transplant the C315GS-4 cannula system for mouse (Plastics One Inc., Roanoke, Va.) to the mouse left cerebral ventricle. The cannula was fixed with a surgical adhesive and dental cement. The mice at 80 days of age were divided at random to a saline (control)-administered group (n=8) and an ADNF-administered group (n=11), and 3 μl of saline and 3 μl of 30 nmol ADNF were intracerebroventricularly (icv) injected each day to the former and the latter groups, respectively, until the end of the experiment. The injection was performed with the cannula in C3151S-4 connected to Hamilton syringe through a cannula tube (C232, PE50/Thin wall, Plastic One).
The motor function (motor performance) was evaluated weekly with a rotarod (CLEA Japan Inc). After the cannulation, the mice were acclimated to the rotarod for 2 days. The mice were placed onto a rotating rod moving at 5 rpm, and the time for which each mouse could remain on the rod was automatically detected. The test was conducted according to the protocol wherein the test was completed as a score of 7 minutes if the mouse remained on the rod for 7 minutes (Li M, et al., 2000, Science 288: 335-339; and Kaspar B K, et al., 2003, Science 301: 839-842). Disease onset was defined as the first day when the mouse could not remain on the rotarod for 7 minutes.
Death was defined when the mouse was unable to right itself within 30 seconds after being placed on its back (Li M, et al., supra).

For “SALLRSIPA [ADNF, short peptide consisting of nine amino acid residues]”, the cell death inhibition ([1]; 10 aM ADNF, three SOD1 mutant genes, 72 hours) was “hardly exhibited cell death inhibition”, the “cell mortality induced by SOD1 mutant genes” value ([1]; 100 fM ADNF, A4T-, G85R-, G93R-SOD1, 72 hours after transformation) was “completely decreased cell mortalities induced by these three types of SOD1 mutant genes to the level of the control” and the “protective action on cell death caused by SOD1 mutant genes” value ([1]; ADNF at concentrations equal to or above 10 nM) was “complete protective action”. For the same sequence, the “SOD1 gene expression levels” value [2] was “not affected”, the “disease onset versus saline-administered group” value ([3]; 30 nmol ADNF icv each day) was “prone to be delayed; also recorded: no significant difference” and the “survival rate versus ALS control mice” value ([3]; 30 nmol ADNF icv each day) was “no difference”. The Survival days ([3]; 30 nmol ADNF icv each day, n = 11) was 155.3 ± 3.7 days and 155.3 ± 2.2 days, the Disease onset days ([3]; 30 nmol ADNF icv each day, n = 11, onset = first day unable to remain on rotarod for 7 minutes) was 127.3 ± 2.6 days and the “motor performance (rotarod) versus control mice” value ([3]; Week 16, 30 nmol ADNF icv each day from 80 days of age) was “significantly better than that of the control mice”. For the same sequence, the “motor performance (rotarod) versus control mice” value ([3]; Week 18 to Week 20, 30 nmol ADNF icv each day) was “this difference between the control mice and the ADNF-treated mice disappeared”.
